From patent US8975417B2, “Pyrazolopyrrolidine derivatives and their use in the treatment of disease” (Novartis AG, priority 2013, dated 2015)

Tests used:
His-Brd2(60-472) = His-Brd2(60-472) (Homo sapiens (Human), UniProt P25440); assay: TR-FRET in-vitro binding assay for BRD2; conditions: biochemical
Method in brief: (§1)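 His-tagged BRD2(60-472), BRD3(20-477) or BRD4(44-477), 45 nM in dispensing solution, with 60 nM tetra-acetylated histone H4 peptide (AcK5/8/12/16) in dispensing solution; HEPES pH 7.5, 50 mM NaCl, 0.1% BSA, 30 °C, 35 min. Eu-anti-His6 antibody plus streptavidin-APC added for TR-FRET read-out; 8-point compound dilutions.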

His-Brd4(44-477) = His-Brd4(44-477) (Homo sapiens (Human), UniProt O60885); assay: TR-FRET in-vitro binding assay for BRD4; conditions: biochemical
Method in brief: as §1

MV-4-11 cells = assay: Cell growth inhibition assay (CellTiter-Glo), MV-4-11; assay type: cell-based; conditions: Homo sapiens, MV4-11, read-out: MV-4-11 TGI
Method in brief: (§2)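 Compounds tested as 3-fold dilution series starting at 10 μM (DMSO 0.1% final); viability read by cellular ATP (CTG luminescence) at 37° C. Signal corrected for no-cell background and a day-0 plate, scaled −100% to 100%; four-parameter fitting gives IC50 and TGI.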

THP-1 cells = assay: Cell growth inhibition assay (CellTiter-Glo), THP-1; assay type: cell-based; conditions: Homo sapiens, read-out: THP-1 TGI
Method in brief: as §2

K-562 cells = assay: Cell growth inhibition assay (CellTiter-Glo), K-562; assay type: cell-based, human; conditions: Homo sapiens, K562, read-out: K-562 TGI
Method in brief: as §2

[1] = biological target: nuclear BRD4-NUT foci in HCC2494 NUT midline carcinoma cells (Homo sapiens (Human), UniProt O60885+Q86Y26); assay: Nut-foci formation assay; assay type: cell-based; conditions: 24 hours, read-out: HCS Brd4-NUT IC50
Protocol: HCC2494 NUT midline carcinoma cells (expressing BRD4-NUT-fusion) were obtained from the University of Texas Southwestern and cultured in RPMI-1640 medium containing 10% Foetal Calf Serum at 37° C. in a humidified 5% CO2 incubator.
Compound-mediated inhibition of BRD4 activity was monitored by quantification of the number and intensity of nuclear BRD4-NUT foci using automated immunofluorescence microscopy. Briefly, 5000 cells in 20 μL fresh medium were seeded into Poly-D-Lysine-precoated 384-well plates and incubated overnight at 37° C. and 5% CO2, followed by addition of 5 μl medium containing compound dilutions at 5-fold their final intended concentration. Dose-response effects were assessed by 3-fold serial dilutions of the test compound, starting at 10 μM. Following incubation of the cells for 24 hours at 37° C. and 5% CO2, the cells were fixed by incubation with 3.7% formaldehyde for 10 min, followed by immunofluorescence staining using rabbit anti-NUT (Cell Signaling Technologies, Cat#3625) as primary, and AlexaFluor488-labeled goat anti-rabbit (Invitrogen, Cat#A11008) as secondary antibody (latter complemented with 1 μg/mL Hoechst33342 as DNA dye). Assay plates were imaged using the appropriate filter sets on the Cellomics VTi automated fluorescence microscopy platform (ThermoFisher Scientific) and the population average of the number of NUT-foci per nucleus is quantified using the Cellomics Spot Detection BioApplication image analysis algorithm (ThermoFisher Scientific). The effect of a particular test compound concentration on NUT-foci number and intensity is expressed as percentage of the value obtained for cells treated with vehicle only (DMSO, 0.1% final concentration), which was set as 100. Compound concentrations leading to half-maximal (IC50) inhibition of the aforementioned readout parameters were determined using standard four parameter curve fitting.

His-Brd3(20-477) = His-Brd3(20-477) (Homo sapiens (Human), UniProt Q15059); assay: TR-FRET in-vitro binding assay for BRD3; conditions: biochemical
Method in brief: as §1

Sequence of His-Brd3(20-477) (Q15059 20-477): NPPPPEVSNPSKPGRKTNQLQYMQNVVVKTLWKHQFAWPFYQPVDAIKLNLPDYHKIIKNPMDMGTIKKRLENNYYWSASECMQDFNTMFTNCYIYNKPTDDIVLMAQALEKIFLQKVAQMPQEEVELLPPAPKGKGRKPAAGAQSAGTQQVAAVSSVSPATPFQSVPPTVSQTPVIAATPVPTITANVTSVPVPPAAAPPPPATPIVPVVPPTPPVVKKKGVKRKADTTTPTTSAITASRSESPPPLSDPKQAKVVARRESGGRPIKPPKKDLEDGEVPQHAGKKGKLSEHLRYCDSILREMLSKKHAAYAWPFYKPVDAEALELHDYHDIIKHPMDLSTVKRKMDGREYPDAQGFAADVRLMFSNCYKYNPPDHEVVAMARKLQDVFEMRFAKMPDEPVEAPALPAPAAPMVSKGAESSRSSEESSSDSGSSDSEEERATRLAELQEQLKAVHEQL
Sequence of His-Brd2(60-472) (P25440 60-472): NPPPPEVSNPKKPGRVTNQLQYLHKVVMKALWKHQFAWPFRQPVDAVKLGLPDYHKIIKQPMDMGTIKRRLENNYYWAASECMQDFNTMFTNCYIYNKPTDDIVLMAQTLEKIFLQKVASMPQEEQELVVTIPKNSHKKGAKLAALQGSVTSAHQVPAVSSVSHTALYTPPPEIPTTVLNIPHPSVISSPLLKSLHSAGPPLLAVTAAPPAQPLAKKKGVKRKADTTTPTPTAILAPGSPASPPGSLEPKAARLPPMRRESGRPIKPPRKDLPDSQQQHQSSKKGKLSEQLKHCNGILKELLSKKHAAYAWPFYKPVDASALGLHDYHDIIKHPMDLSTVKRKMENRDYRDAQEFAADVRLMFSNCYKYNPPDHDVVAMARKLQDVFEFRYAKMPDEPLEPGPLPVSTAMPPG

Structure (SMILES) | IC50 (His-Brd2(60-472)) | IC50 (His-Brd4(44-477)) | IC (total growth inhibition) (MV-4-11 cells) | IC (total growth inhibition) (THP-1 cells) | IC (total growth inhibition) (K-562 cells) | IC50 [1] | IC50 (His-Brd3(20-477))
CNc1cc(N2C(=O)c3c(c(C)nn3C3CC3)[C@H]2c2ccc(Cl)cc2)nn2c(C)nnc12 [Example 161, (R)-4-(4-chlorophenyl)-1-cyclopropyl-3-methyl-5-(3-methyl-8-(methylamino)-[1,2,4]triazolo[4,3-b]pyridazin-6-yl)-4,5-dihydropyrrolo[3,4-c]pyrazol-6(1H)-one] | 0.033 µM | 0.021 µM | 0.102 µM | 0.152 µM | > 10 µM | 0.0401 µM | 0.024 µM
CNC(=O)n1nc2c(c1C)C(c1ccc(Cl)cc1)N(c1cc(C)c(=O)n(C)c1)C2=O (stereo not drawn) [Example 144, 4-(4-chlorophenyl)-5-(1,5-dimethyl-6-oxo-1,6-dihydropyridin-3-yl)-N,3-dimethyl-6-oxo-5,6-dihydropyrrolo[3,4-c]pyrazole-2(4H)-carboxamide] | 0.16 µM | 0.15 µM | 0.107 µM | 0.361 µM | > 10 µM | 0.134 µM | 0.14 µM
Cc1cc(N2C(=O)c3nn(C4COC4)c(C)c3C2c2ccc(Cl)cc2)cn(C)c1=O (stereo not drawn) [Example 134, 4-(4-chlorophenyl)-5-(1,5-dimethyl-6-oxo-1,6-dihydropyridin-3-yl)-3-methyl-2-(oxetan-3-yl)-4,5-dihydropyrrolo[3,4-c]pyrazol-6(2H)-one] | 0.19 µM | 0.16 µM | 0.187 µM | 0.291 µM | > 10 µM | 0.0922 µM | 0.13 µM
CNC(=O)n1nc2c(c1C)C(c1ccc(Cl)cc1)N(c1cc(C)c3nnc(C)n3c1)C2=O (stereo not drawn) [Example 146, 4-(4-chlorophenyl)-5-(3,8-dimethyl-[1,2,4]triazolo[4,3-a]pyridin-6-yl)-N,3-dimethyl-6-oxo-5,6-dihydropyrrolo[3,4-c]pyrazole-2(4H)-carboxamide] | 0.19 µM | 0.15 µM | 0.0546 µM | 0.283 µM | > 10 µM | 0.091 µM | 0.2 µM
Cc1cc(N2C(=O)c3nn(C4CN(C)C4)c(C)c3C2c2ccc(Cl)cc2)cn(C)c1=O (stereo not drawn) [Example 139, 4-(4-chlorophenyl)-5-(1,5-dimethyl-6-oxo-1,6-dihydropyridin-3-yl)-3-methyl-2-(1-methylazetidin-3-yl)-4,5-dihydropyrrolo[3,4-c]pyrazol-6(2H)-one] | 0.16 µM | 0.19 µM | 0.107 µM | 0.399 µM | > 10 µM | 0.366 µM | 0.12 µM
Cc1c2c(nn1C1CC1)C(=O)N(c1cc(Cl)c(=O)n(C)c1)[C@@H]2c1ccc(Cl)cc1 [Example 19, (R)-5-(5-chloro-1-methyl-6-oxo-1,6-dihydropyridin-3-yl)-4-(4-chlorophenyl)-2-cyclopropyl-3-methyl-4,5-dihydropyrrolo[3,4-c]pyrazol-6(2H)-one] | 0.078 µM | 0.073 µM | 0.043 µM | 0.125 µM | > 10 µM | 0.118 µM | 0.065 µM
